Measured values as given in US20180116988A1, “METHODS OF PREVENTING AND TREATING AUTOIMMUNITY” (THE REGENTS OF THE UNIVERSITY OF COLORADO a body corporate, priority 2015, published 2018).
Like-named read-outs stand apart in the source and are kept apart here.

Columns and labels:
[1] = design: species or system human; details: in vivo
From the text: (§1) Human leukocyte antigen (HLA) alleles confer significant genetic risk for type 1 diabetes (T1D) with recent studies implicating DQ8 in its pathogenesis, and DQ8 antigen presentation can be inhibited with methyldopa in animal models. In this pilot study, the inventors evaluated methyldopa treatment in 10 DQ8 positive human subjects with T1D, ages 18-46 years (mean 27) with less than 2 years of diabetes duration (mean 3 months). This was an open label phase 1b dose escalation study.

[2] = Glucose control in T1D patients treated with methyldopa over 3 months; format: in vivo, human
From the text: as §1

DR4 = DR4 T cell response in T1D patients treated with methyldopa; format: in vivo, human; details: T1D subjects treated with varying doses of methyldopa
From the text: as §1

DQ8 = target: T1, DQ8 (Homo sapiens, UniProt P01909+P01920, A209T/A45G/C70Q/D89A/E183D/E77G/F237L/G63E/H199R/I129T/K197E/L178F/L74F/L98V/N214S/Q57E/Q76R/S185I/S97I/T49S/V73L/Y58L); assay: DQ8-stimulated IL-2 T cell response in T1D patients treated with methyldopa (open label phase 1b dose escalation study); format: in vivo; details: for reduction in DQ8-stimulated IL-2 T cell response: DQ8 positive T1D subjects
T1 construct: endogenous in cells; host or cells: blood cells of DQ8-positive human T1D subjects treated with methyldopa
T1 sequence (P01920 33-261 A45G/Y58L/E77G/D89A/H199R/N214S, other chains not shown): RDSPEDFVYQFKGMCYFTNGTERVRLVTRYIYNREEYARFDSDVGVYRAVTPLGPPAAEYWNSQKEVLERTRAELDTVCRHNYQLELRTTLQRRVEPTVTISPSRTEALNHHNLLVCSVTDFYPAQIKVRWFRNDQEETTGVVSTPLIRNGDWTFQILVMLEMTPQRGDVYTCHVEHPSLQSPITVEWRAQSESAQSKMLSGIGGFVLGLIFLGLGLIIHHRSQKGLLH
From the text: as §1

DQ8-stimulated IL-2 T cell response after stopping therapy (DQ8; 6 weeks after stopping therapy): returned to normal
reduction in DQ8-stimulated IL-2 T cell response (DQ8; at 1 week of dose escalation): 32%
reduction in DQ8-stimulated IL-2 T cell response (DQ8; at 3 weeks of dose escalation): 39%
SMILES: C[C@](N)(Cc1ccc(O)c(O)c1)C(=O)O [methyldopa, α-Methyl-3,4-dihydroxyphenylalanine]
subjects tolerating dosage ([1]; human): 9/10
serious adverse events (hypotension, DKA, or hypoglycemia) [1]: No serious adverse events
subjects tolerating dosage [1]: All subjects tolerated
glycemic control [2]: good glycemic control
DR4 T cell responses (DR4): minimally effected
